From ChEMBL document CHEMBL4138123, “Design, synthesis and biological evaluation of novel pyrazolochalcones as potential modulators of PI3K/Akt/mTOR pathway and inducers of apoptosis in breast cancer cells” (Eur J Med Chem, 2017)

Experiments:
Format in all cases: functional
[1] = test system: A498; test: Cytotoxicity against human A498 cells assessed as cell growth at 100 uM after 48 hrs by sulforhodamine B assay relative to control; conditions: A498, 48 h, read-out: Activity
[2] = test system: KM12; test: Cytotoxicity against human KM12 cells assessed as cell growth at 10 uM after 48 hrs by sulforhodamine B assay relative to control; conditions: KM12, 48 h, read-out: Activity
[3] = test system: NCI-H226; test: Cytotoxicity against human NCI-H226 cells assessed as cell growth at 0.01 uM after 48 hrs by sulforhodamine B assay relative to control; conditions: NCI-H226, 48 h, read-out: Activity
[4] = test system: NCI/ADR-RES; test: Cytotoxicity against human NCI/ADR-RES cells assessed as growth inhibition after 48 hrs by sulforhodamine B assay
[5] = test system: SNB-19; test: Cytotoxicity against human SNB19 cells assessed as cell growth at 0.01 uM after 48 hrs by sulforhodamine B assay relative to control; conditions: SNB-19, 48 h, read-out: Activity
[6] = test system: RXF 393; test: Cytotoxicity against human RXF393 cells assessed as cell growth at 1 uM after 48 hrs by sulforhodamine B assay relative to control; conditions: RXF 393, 48 h, read-out: Activity
[7] = test system: UACC-257; test: Cytotoxicity against human UACC257 cells assessed as cell growth at 0.1 uM after 48 hrs by sulforhodamine B assay relative to control; conditions: UACC-257, 48 h, read-out: Activity
[8] = test system: Hs-578T; test: Cytotoxicity against human Hs 578T cells assessed as growth inhibition after 48 hrs by sulforhodamine B assay
[9] = test system: NCI-H226; test: Cytotoxicity against human NCI-H226 cells assessed as growth inhibition after 48 hrs by sulforhodamine B assay; conditions: NCI-H226, 48 h
[10] = test system: HT-29; test: Cytotoxicity against human HT-29 cells assessed as cell growth at 10 uM after 48 hrs by sulforhodamine B assay relative to control; conditions: HT-29, 48 h, read-out: Activity
[11] = test system: OVCAR-8; test: Cytotoxicity against human OVCAR8 cells assessed as cell growth at 0.1 uM after 48 hrs by sulforhodamine B assay relative to control; conditions: OVCAR-8, 48 h, read-out: Activity
[12] = test system: CCRF-CEM; test: Cytotoxicity against human CCRF-CEM cells assessed as cell growth at 0.1 uM after 48 hrs by sulforhodamine B assay relative to control; conditions: read-out: Activity
[13] = test system: UACC-257; test: Cytotoxicity against human UACC257 cells assessed as cell growth at 1 uM after 48 hrs by sulforhodamine B assay relative to control; conditions: UACC-257, 48 h, read-out: Activity
[14] = test system: SK-OV-3; test: Cytotoxicity against human SKOV3 cells assessed as cell growth at 0.1 uM after 48 hrs by sulforhodamine B assay relative to control; conditions: SK-OV-3, 48 h, read-out: Activity
[15] = test system: RXF 393; test: Cytotoxicity against human RXF393 cells assessed as cell growth at 0.01 uM after 48 hrs by sulforhodamine B assay relative to control; conditions: RXF 393, 48 h, read-out: Activity
[16] = test system: KM12; test: Cytotoxicity against human KM12 cells assessed as cell growth at 1 uM after 48 hrs by sulforhodamine B assay relative to control; conditions: KM12, 48 h, read-out: Activity
[17] = test system: KM12; test: Cytotoxicity against human KM12 cells assessed as growth inhibition after 48 hrs by sulforhodamine B assay; conditions: KM12, 48 h
[18] = test system: MDA-MB-435; test: Cytotoxicity against human MDA-MB-435 cells assessed as cell growth at 100 uM after 48 hrs by sulforhodamine B assay relative to control; conditions: MDA-MB-435, 48 h, read-out: Activity
[19] = test system: NCI-H522; test: Cytotoxicity against human NCI-H522 cells assessed as cell growth at 10 uM after 48 hrs by sulforhodamine B assay relative to control; conditions: NCI-H522, 48 h, read-out: Activity
[20] = test system: HT-29; test: Cytotoxicity against human HT-29 cells assessed as cell growth at 0.01 uM after 48 hrs by sulforhodamine B assay relative to control; conditions: HT-29, 48 h, read-out: Activity
[21] = test system: RPMI-8226; test: Cytotoxicity against human RPMI8226 cells assessed as cell growth at 10 uM after 48 hrs by sulforhodamine B assay relative to control; conditions: RPMI-8226, 48 h, read-out: Activity
[22] = test system: K562; test: Cytotoxicity against human K562 cells assessed as cell growth at 0.1 uM after 48 hrs by sulforhodamine B assay relative to control; conditions: K562, 48 h, read-out: Activity
[23] = test system: U-251; test: Cytotoxicity against human U251 cells assessed as growth inhibition after 48 hrs by sulforhodamine B assay; conditions: U-251, 48 h
[24] = test system: BT-549; test: Cytotoxicity against human BT549 cells assessed as growth inhibition after 48 hrs by sulforhodamine B assay; conditions: BT-549, 48 h
[25] = test system: MDA-MB-231; test: Cytotoxicity against human MDA-MB-231 cells assessed as cell growth at 0.1 uM after 48 hrs by sulforhodamine B assay relative to control; conditions: MDA-MB-231, 48 h, read-out: Activity
[26] = test system: PC-3; test: Cytotoxicity against human PC3 cells assessed as growth inhibition after 48 hrs by sulforhodamine B assay; conditions: PC-3, 48 h
[27] = test system: 786-0; test: Cytotoxicity against human 786-0 cells assessed as cell growth at 1 uM after 48 hrs by sulforhodamine B assay relative to control; conditions: 786-0, 48 h, read-out: Activity
[28] = test system: HT-29; test: Cytotoxicity against human HT-29 cells assessed as growth inhibition after 48 hrs by sulforhodamine B assay; conditions: HT-29, 48 h
[29] = test system: SK-OV-3; test: Cytotoxicity against human SKOV3 cells assessed as cell growth at 10 uM after 48 hrs by sulforhodamine B assay relative to control; conditions: SK-OV-3, 48 h, read-out: Activity
[30] = test system: RXF 393; test: Cytotoxicity against human RXF393 cells assessed as cell growth at 100 uM after 48 hrs by sulforhodamine B assay relative to control; conditions: RXF 393, 48 h, read-out: Activity
[31] = test system: UACC-62; test: Cytotoxicity against human UACC62 cells assessed as cell growth at 1 uM after 48 hrs by sulforhodamine B assay relative to control; conditions: UACC-62, 48 h, read-out: Activity
[32] = test system: OVCAR-5; test: Cytotoxicity against human OVCAR5 cells assessed as growth inhibition after 48 hrs by sulforhodamine B assay; conditions: OVCAR-5, 48 h
[33] = test system: CCRF-CEM; test: Cytotoxicity against human CCRF-CEM cells assessed as cell growth at 0.01 uM after 48 hrs by sulforhodamine B assay relative to control; conditions: read-out: Activity
[34] = test system: HCT-116; test: Cytotoxicity against human HCT116 cells assessed as cell growth at 10 uM after 48 hrs by sulforhodamine B assay relative to control; conditions: HCT-116, 48 h, read-out: Activity
[35] = test system: HT-29; test: Cytotoxicity against human HT-29 cells assessed as cell growth at 1 uM after 48 hrs by sulforhodamine B assay relative to control; conditions: HT-29, 48 h, read-out: Activity
[36] = test system: SF-268; test: Cytotoxicity against human SF268 cells assessed as growth inhibition after 48 hrs by sulforhodamine B assay; conditions: SF-268, 48 h; for CC50: read-out: LC50 (the source's name)

COc1ccc(-c2cc(/C=C/C(=O)c3ccc(N)cc3)[nH]n2)cc1
growth at 100 µM [1]: -96%
growth at 10 µM [2]: -67%
growth at 0.01 µM [3]: 102%
GI50 [4]: 2860 nM
LC50 [4]: > 100 µM
TGI [4]: 15.5 µM
growth at 0.01 µM [5]: 92%
growth at 1 µM [6]: 78%
growth at 0.1 µM [7]: 97%
GI50 [8]: 4.04 µM
LC50 [8]: > 100 µM
TGI [8]: 24.4 µM
GI50 [9]: 2000 nM
LC50 (concentration killing 50% of cells) [9]: 92.1 µM
TGI [9]: 5.57 µM
growth at 10 µM [10]: -10%
growth at 0.1 µM [11]: 100%
growth at 0.1 µM [12]: 98%
growth at 1 µM [13]: 90%
growth at 0.1 µM [14]: 103%
growth at 0.01 µM [15]: 95%
growth at 1 µM [16]: 77%
GI50 [17]: 1540 nM
LC50 [17]: 7.61 µM
TGI [17]: 3.42 µM
growth at 100 µM [18]: -75%
growth at 10 µM [19]: -70%
growth at 0.01 µM [20]: 97%
growth at 10 µM [21]: -35%
growth at 0.1 µM [22]: 95%
GI50 [23]: 1240 nM
LC50 [23]: 5.3 µM
TGI [23]: 2570 nM
GI50 [24]: 1740 nM
LC50 (concentration killing 50% of cells) [24]: 36.3 µM
TGI [24]: 4.78 µM
growth at 0.1 µM [25]: 89%
GI50 [26]: 2420 nM
LC50 [26]: 39.8 µM
TGI [26]: 10.1 µM
growth at 1 µM [27]: 88%
GI50 [28]: 2750 nM
LC50 [28]: 74.1 µM
TGI [28]: 8.11 µM
growth at 10 µM [29]: 23%
growth at 100 µM [30]: -63%
growth at 1 µM [31]: 79%
GI50 [32]: 2060 nM
LC50 [32]: 16 µM
TGI [32]: 4.92 µM
growth at 0.01 µM [33]: 99%
growth at 10 µM [34]: -53%
growth at 1 µM [35]: 97%
GI50 [36]: 1810 nM
TGI [36]: 5.31 µM
CC50 [36]: 45.7 µM

COc1cc(C(=O)/C=C/c2cc(-c3cc(OC)c(OC)c(OC)c3)n[nH]2)cc(OC)c1OC
growth at 100 µM [1]: -98%
growth at 10 µM [2]: -90%
growth at 0.01 µM [3]: 99%
LC50 [4]: > 100 µM
TGI [4]: 21.4 µM
growth at 0.01 µM [5]: 92%
growth at 1 µM [6]: 65%
growth at 0.1 µM [7]: 91%
LC50 [8]: > 100 µM
TGI [8]: 53.9 µM
TGI [9]: 3.05 µM
growth at 10 µM [10]: -86%
growth at 0.1 µM [11]: 94%
growth at 0.1 µM [12]: 94%
growth at 1 µM [13]: 85%
growth at 0.1 µM [14]: 95%
growth at 0.01 µM [15]: 93%
growth at 1 µM [16]: 79%
LC50 [17]: 5.77 µM
TGI [17]: 2.93 µM
growth at 100 µM [18]: -83%
growth at 10 µM [19]: -97%
growth at 0.01 µM [20]: 95%
growth at 10 µM [21]: -38%
growth at 0.1 µM [22]: 104%
LC50 [23]: 5.67 µM
TGI [23]: 2960 nM
LC50 (concentration killing 50% of cells) [24]: 5.6 µM
TGI [24]: 2.96 µM
growth at 0.1 µM [25]: 104%
LC50 [26]: 7.36 µM
TGI [26]: 3.29 µM
growth at 1 µM [27]: 80%
LC50 [28]: 6.36 µM
TGI [28]: 3.37 µM
growth at 10 µM [29]: 5%
growth at 100 µM [30]: -98%
growth at 1 µM [31]: 90%
LC50 [32]: 5.92 µM
TGI [32]: 3.12 µM
growth at 0.01 µM [33]: 96%
growth at 10 µM [34]: -99%
growth at 1 µM [35]: 96%
TGI [36]: 4.58 µM
CC50 [36]: 14.2 µM
